Results as given in US8722023B2, “Depigmenting or brigthening cosmetic composition comprising at least one oxazolin as an active ingredient” (Laboratoires Expanscience, priority 2005, dated 2014).

Columns and labels:
[1] = system: Melanocyte/keratinocyte co-cultures (NHEM-NHEK; M/K); assay: Viability (MTT test) of M/K co-cultures; format: cell-based, human; details: for Viability percentage (MTT test): 240 hours
Protocol: (§1) Melanocyte/keratinocyte co-cultures (NHEM-NHEK; M/K) are incubated for 240 hours, in the absence or presence of OX100. The quantity of melanin present in the cells after incubation is measured by spectrophotometry. 1) M/K co-cultures are inoculated in medium free of PMA (phorbol myristate acetate) and are brought to 60-80% confluence for the test. 2) Three identical culture series are prepared in order to measure: • cytotoxicity by a MTT (tetrazolium salt) test and by morphological observation of the cells, • quantity of melanin, • quantity of total proteins (in order to determine the ratio of melanin to total protein). 3) Treatment conditions are as follows: • OX100 at three concentrations: 2×10^−6, 10^−5, 2×10^−5 M. • Kojic acid (reference depigmenting molecule). • IBMX (3-isobutyl-1-methylxanthine, pro-pigmenting reference molecule). Each treatment condition is carried out in triplicate. The co-cultures are incubated for 240 hours in the presence or absence of the compounds above. Irradiation by ultraviolet rays (25 mJ/cm^2 of UVB+300 mJ/cm^2 of UVA) is carried out four times per day for consecutive four days.

[2] = system: normal human melanocytes in co-culture (NHEM-NHEK; M/K); assay: Production of melanin in M/K co-cultures, irradiated or not; format: cell-based; details: for quantity of melanin compared to the control (control = 100) / variation of the quantity of melanin compared to the control (value in brackets): 240 hours
Protocol: as §1, with “The effect of OX100 was studied on the production of melanin by normal human melanocytes in co-culture (NHEM-NHEK; M/K) irradiated or not. Melanocyte/keratinocyte” for “Melanocyte/keratinocyte”, “days. At the end of the treatment, the cellular monolayers are washed. After cell lysis, the melanin crystals are extracted and solubilized. The melanin is quantified by measurement of the OD (optical density) at 450 nm and by comparison with a range of melanin standards.” for “days.”

[3] = system: skin of the hands (spot-free area and pre-identified pigmentation spot); assay: Colorimetric measurements (Chromameter) on the hands, treated hand vs. control hand; format: in vivo, human (adult female volunteers); details: for Individual typological angle (ITA), treated hand / Lightness variable L*, treated hand: mean ± SEM
Source text: Among these volunteers, 14% were North-African in origin and 86% Mediterranean, including 76% of phototype IV and 10% of phototype V. All of these volunteers had lentigo pigmentation spots on the hands and most had them on the face. COLORIMETRIC MEASUREMENTS (Chromameter™): Variance homogeneity and distribution normality were verified in all cases. Measurements are taken on the hands, in an area without pigmentation spots. The results correspond to the means and deviations with respect to the mean-SEM. The time and product effects results with values less than 0.05 are statistically significant. The result corresponding to both the time and product effects gives the value of the probability of the differences Δ (T=6 weeks minus T0) by the Student's t-test in a paired series (bilateral significance test, p<0.05). Measurements are carried out on the hands in an area with pigmentation spots. The results correspond to the means and deviations with respect to the mean-SEM.

[4] = system: lentigo pigmentation spots, skin of hands and face; assay: Clinical evaluation of hands and face after six weeks of application; format: in vivo, human (adult female volunteers)
Source text: Among these volunteers, 14% were North-African in origin and 86% Mediterranean, including 76% of phototype IV and 10% of phototype V. All of these volunteers had lentigo pigmentation spots on the hands and most had them on the face. The results of the statistically significant variation, after six weeks of application, of some of the criteria evaluated are given in table 6 below: The percentages correspond to variations with respect to the initial evaluations, the p value corresponds to probability p with respect to the initial evaluations (Wilcoxon test, bilateral significance test, p<0.05). For measurements of pigmentation spot intensity, the intensity of the spot is identified beforehand. The results of the statistically significant variation, after six weeks of application, of some of the criteria evaluated are given in table 7 below: The percentages correspond to variations with respect to the initial evaluations, the p value corresponds to probability p with respect to the initial evaluations (Wilcoxon test, bilateral significance test, p<0.05). For measurements of pigmentation spot intensity, the intensity of the spot is identified beforehand.

[5] = Overall assessment of the product's acceptability and effectiveness by the volunteers; format: in vivo, human (adult female volunteers); set-up: unit not given here; details: panel of 21 volunteers
Source text: Overall Assessment of the Product's Acceptability and Effectiveness by the Volunteers

[6] = Assessment of cutaneous acceptability by the volunteers; format: in vivo, human (adult female volunteers); set-up: volunteers reporting no cutaneous manifestations: unit not given here
Source text: Assessment of Cutaneous Acceptability by the Volunteers

[7] = area with spots (pre-identified pigmentation spot), T = 0 (before treatment)
[8] = area with spots (pre-identified pigmentation spot), T = 6 weeks
[9] = spot-free area of the hands, T = 0 (before treatment)
[10] = spot-free area of the hands, T = 6 weeks

Q: With `CC(C)Cn1c(=O)n(C)c(=O)c2[nH]cnc21` [IBMX, 3-isobutyl-1-methylxanthine, reference compound] as the compound, how does the “Viability percentage (MTT test)” value ([1]; 200 μM, With UV) read?
A: 111%

Q: What about the “Viability percentage (MTT test)” value ([1]; 200 μM, Without UV) of the same compound?
A: 118%

Q: And the “quantity of melanin compared to the control (control = 100)” value ([2]; 200 μM, With UV)?
A: 114%

Q: What about the “quantity of melanin compared to the control (control = 100)” value ([2]; 200 μM, Without UV) of the same compound?
A: 118%

Q: And the “variation of the quantity of melanin compared to the control (value in brackets)” value ([2]; With UV)?
A: +14%

Q: And the “variation of the quantity of melanin compared to the control (value in brackets)” value ([2]; Without UV)?
A: +15%

Q: Which “Viability percentage (MTT test)” value ([1]; 0.0156 mg/ml, With UV) does the source give for `O=c1cc(CO)occ1O` [Kojic acid, reference compound] here?
A: 99%

Q: And the “Viability percentage (MTT test)” value ([1]; 0.0156 mg/ml, Without UV)?
A: 102%

Q: And the “quantity of melanin compared to the control (control = 100)” value ([2]; 15.6 μg/ml, With UV)?
A: 83%

Q: What about the “variation of the quantity of melanin compared to the control (value in brackets)” value ([2]; 15.6 μg/ml, With UV) of the same compound?
A: −20%

Q: And the “quantity of melanin compared to the control (control = 100)” value ([2]; 15.6 μg/ml, Without UV)?
A: 74%

Q: What about the “variation of the quantity of melanin compared to the control (value in brackets)” value ([2]; 15.6 μg/ml, Without UV) of the same compound?
A: −35%

Q: What does the source list for `CCCCCCCCCCCC1=NC(C)(C)CO1` [OX100, 2-undecyl-4,4-dimethyl-1,3-oxazoline]?
A: Individual typological angle (ITA), treated hand [3, 7]: 5.0 ± 4.5; Lightness variable L*, treated hand [3, 7]: 51.2 ± 1.1; Individual typological angle (ITA), treated hand [3, 8]: 11.0 ± 5.2; Lightness variable L*, treated hand [3, 8]: 52.4 ± 1.2; increase in chromaticity coordinate L* ([3]; area with spots, six weeks of applications, compared to initial values and control hand, p=0.048): +2%; Individual typological angle (ITA), treated hand [3, 9]: 38.5 ± 2.4; Lightness variable L*, treated hand [3, 9]: 58.4 ± 0.7; Individual typological angle (ITA), treated hand [3, 10]: 44.1 ± 2.4; Lightness variable L*, treated hand [3, 10]: 59.2 ± 0.7; increase in ITA ([3]; spot-free area, six weeks of applications, compared to initial values and control hand, p=0.008): +13%; increase in chromaticity coordinate L* ([3]; spot-free area, six weeks of applications, compared to initial values and control hand, p=0.017): +2%; COLOR LIGHTNESS, variation with respect to initial evaluation ([4]; face, p = 0.0001 (Wilcoxon)): +22% (p = 0.0001); INTENSITY OF THE PIGMENTATION SPOT, variation with respect to initial evaluation ([4]; face, p = 0.0196 (Wilcoxon)): −8% (p = 0.0196); COLOR UNIFORMITY, variation with respect to initial evaluation ([4]; face, p = 0.0455 (Wilcoxon)): +4% (p = 0.0455); SKIN LIGHTNESS, variation with respect to initial evaluation ([4]; hands, p = 0.0002 (Wilcoxon)): +16% (p = 0.0002); INTENSITY OF THE PIGMENTATION SPOT, variation with respect to initial evaluation ([4]; hands, p = 0.0143 (Wilcoxon)): −5% (p = 0.0143); SKIN UNIFORMITY, variation with respect to initial evaluation ([4]; hands, p = 0.0209 (Wilcoxon)): +10% (p = 0.0209); volunteers reporting somewhat good to good effectiveness as a depigmenting/lightening product [5]: Thirty-eight; dermatological tolerance, conclusion in words ([6]; conclusion of Example 6): dermatologically well-tolerated; volunteers reporting no cutaneous manifestations ([6]; panel of 21 volunteers): Ninety-five; volunteers reporting no ocular manifestations ([6]; panel of 21 volunteers): 100%; Viability percentage (MTT test) ([1]; 2 × 10^−5 M, With UV): 105%; Viability percentage (MTT test) ([1]; 2 × 10^−5 M, Without UV): 115%; Viability percentage (MTT test) ([1]; 2 × 10^−6 M, With UV): 97%; Viability percentage (MTT test) ([1]; 2 × 10^−6 M, Without UV): 102%; Viability percentage (MTT test) ([1]; 10^−5 M, With UV): 99%; Viability percentage (MTT test) ([1]; 10^−5 M, Without UV): 108%; toxicity for the M/K co-cultures, in words ([1]; at the concentrations tested): not toxic; quantity of melanin compared to the control (control = 100) ([2]; 2 × 10^−5 M, With UV): 104%; variation of the quantity of melanin compared to the control (value in brackets) ([2]; 2 × 10^−5 M, With UV): +4%; quantity of melanin compared to the control (control = 100) ([2]; 2 × 10^−5 M, Without UV): 89%; variation of the quantity of melanin compared to the control (value in brackets) ([2]; 2 × 10^−5 M, Without UV): −12%; quantity of melanin compared to the control (control = 100) ([2]; 2 × 10^−6 M, With UV): 100%; variation of the quantity of melanin compared to the control (value in brackets) ([2]; 2 × 10^−6 M, With UV): 0%; quantity of melanin compared to the control (control = 100) ([2]; 2 × 10^−6 M, Without UV): 102%; variation of the quantity of melanin compared to the control (value in brackets) ([2]; 2 × 10^−6 M, Without UV): −1%; quantity of melanin compared to the control (control = 100) ([2]; 10^−5 M, With UV): 99%; variation of the quantity of melanin compared to the control (value in brackets) ([2]; 10^−5 M, With UV): −1%; quantity of melanin compared to the control (control = 100) ([2]; 10^−5 M, Without UV): 104%; variation of the quantity of melanin compared to the control (value in brackets) ([2]; 10^−5 M, Without UV): +4%; effect on melanin in the irradiated study model, in words ([2]; irradiated co-cultures (UVB + UVA)): neutralizes the effect of ultraviolet rays; inhibition of the synthesis of melanin ([2]; non-irradiated co-cultures, 2.10^−5 M, p<0.01): roughly 12%
